Data as given in patent publication US20230123334A1, “AMINO LIPID COMPOUND, PREPARATION METHOD THEREFOR, AND APPLICATION THEREOF” (SHENZHEN SHENXIN BIOTECHNOLOGY CO., LTD., priority 2020, published 2023).

Tested on: HEK293 cells
Test: Preliminary screening as mRNA vectors, EGFP mRNA transfection of HEK293 cells
Type: cell-based
Conditions: EGFP mRNA 50 ng per well, 96-well plates; percentage of GFP fluorescent cells relative to total number of cells (Hoechst)
Outline: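 HEK293 cells in DMEM plus 10% FBS transfected in 96-well format with 50 ng EGFP mRNA per well; Lipofectamine2000 served as positive control. Read-out is the percentage of GFP-fluorescent cells among total cells, counted by Hoechst nuclear stain.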

SMILES | Absolute mRNA transfection efficiency in HEK293 cells
CCCCCCCCCCCCCCCCNc1nc(NCC2CCN(C)CC2)nc(SCCCCCCCCCCC)n1 [Compound D10S11N16] | 10.4%
CCCCCCCCCCCCCCCCCCNc1nc(NCC2CCN(C)CC2)nc(SCCCCCCCCCCC)n1 [Compound D10S11N18] | 9.6%
CCCCCCCCCCCCSc1nc(NCCCCCC)nc(NCC2CCN(C)CC2)n1 [Compound D10S12N6] | 0.2%
CCCCCCCCCCCCSc1nc(NCCCCCCC)nc(NCC2CCN(C)CC2)n1 [Compound D10S12N7] | 1.7%
CCCCCCCCCCCCSc1nc(NCCCCCCCC)nc(NCC2CCN(C)CC2)n1 [Compound D10S12N8] | 12.9%
CCCCCCCCCCCCSc1nc(NCCCCCCCCC)nc(NCC2CCN(C)CC2)n1 [Compound D10S12N9] | 17.5%
CCCCCCCCCCCCSc1nc(NCCCCCCCCCCC)nc(NCC2CCN(C)CC2)n1 [Compound D10S12N11] | 26.6%
CCCCCCCCCCCCNc1nc(NCC2CCN(C)CC2)nc(SCCCCCCCCCCCC)n1 [Compound D10S12N12] | 31.5%
CCCCCCCCCCCCCNc1nc(NCC2CCN(C)CC2)nc(SCCCCCCCCCCCC)n1 [Compound D10S12N13] | 1.8%
CCCCCCCCCCCCCCCNc1nc(NCC2CCN(C)CC2)nc(SCCCCCCCCCCCC)n1 [Compound D10S12N15] | 4.1%
CCCCCCCCCCCCCCCCNc1nc(NCC2CCN(C)CC2)nc(SCCCCCCCCCCCC)n1 [Compound D10S12N16] | 3.4%
CCCCCCCCCCCCCCCCCCNc1nc(NCC2CCN(C)CC2)nc(SCCCCCCCCCCCC)n1 [Compound D10S12N18] | 4.1%
CCCCCCCCCCCCCCSc1nc(NCCCCCC)nc(NCC2CCN(C)CC2)n1 [Compound D10S14N6] | 41.9%
CCCCCCCCCCCCCCSc1nc(NCCCCCCC)nc(NCC2CCN(C)CC2)n1 [Compound D10S14N7] | 55.0%
CCCCCCCCCCCCCCSc1nc(NCCCCCCCC)nc(NCC2CCN(C)CC2)n1 [Compound D10S14N8] | 43.8%
CCCCCCCCCCCCCCSc1nc(NCCCCCCCCC)nc(NCC2CCN(C)CC2)n1 [Compound D10S14N9] | 54.2%
CCCCCCCCCCCCCCSc1nc(NCCCCCCCCCCC)nc(NCC2CCN(C)CC2)n1 [Compound D10S14N11] | 21.4%
CCCCCCCCCCCCCCSc1nc(NCCCCCCCCCCCC)nc(NCC2CCN(C)CC2)n1 [Compound D10S14N12] | 6.9%
CCCCCCCCCCCCCCSc1nc(NCCCCCCCCCCCCC)nc(NCC2CCN(C)CC2)n1 [Compound D10S14N13] | 11.7%
CCCCCCCCCCCCCCCNc1nc(NCC2CCN(C)CC2)nc(SCCCCCCCCCCCCCC)n1 [Compound D10S14N15] | 3.3%

SMILES | Absolute mRNA transfection efficiency in HEK293 cells
CCCCCCCCCCCCCCCCNc1nc(NCC2CCN(C)CC2)nc(SCCCCCCCCCCCCCC)n1 [Compound D10S14N16] | 3.0%
CCCCCCCCCCCCCCCCCCNc1nc(NCC2CCN(C)CC2)nc(SCCCCCCCCCCCCCC)n1 [Compound D10S14N18] | 2.6%
CCCCCCCCCCCCCCCSc1nc(NCCCCCC)nc(NCC2CCN(C)CC2)n1 [Compound D10S15N6] | 18.4%
CCCCCCCCCCCCCCCSc1nc(NCCCCCCC)nc(NCC2CCN(C)CC2)n1 [Compound D10S15N7] | 22.1%
CCCCCCCCCCCCCCCSc1nc(NCCCCCCCC)nc(NCC2CCN(C)CC2)n1 [Compound D10S15N8] | 12.9%
CCCCCCCCCCCCCCCSc1nc(NCCCCCCCCC)nc(NCC2CCN(C)CC2)n1 [Compound D10S15N9] | 12.8%
CCCCCCCCCCCCCCCSc1nc(NCCCCCCCCCCC)nc(NCC2CCN(C)CC2)n1 [Compound D10S15N11] | 2.7%
CCCCCCCCCCCCCCCSc1nc(NCCCCCCCCCCCC)nc(NCC2CCN(C)CC2)n1 [Compound D10S15N12] | 5.1%
CCCCCCCCCCCCCCCSc1nc(NCCCCCCCCCCCCC)nc(NCC2CCN(C)CC2)n1 [Compound D10S15N13] | 5.4%
CCCCCCCCCCCCCCCNc1nc(NCC2CCN(C)CC2)nc(SCCCCCCCCCCCCCCC)n1 [Compound D10S15N15] | 2.4%
CCCCCCCCCCCCCCCCNc1nc(NCC2CCN(C)CC2)nc(SCCCCCCCCCCCCCCC)n1 [Compound D10S15N16] | 6.1%
CCCCCCCCCCCCCCCCCCNc1nc(NCC2CCN(C)CC2)nc(SCCCCCCCCCCCCCCC)n1 [Compound D10S15N18] | 4.2%
CCCCCCCCCCCCCCCCSc1nc(NCCCCCC)nc(NCC2CCN(C)CC2)n1 [Compound D10S16N6] | 86.9%
CCCCCCCCCCCCCCCCSc1nc(NCCCCCCC)nc(NCC2CCN(C)CC2)n1 [Compound D10S16N7] | 29.6%
CCCCCCCCCCCCCCCCSc1nc(NCCCCCCCC)nc(NCC2CCN(C)CC2)n1 [Compound D10S16N8] | 70.4%
CCCCCCCCCCCCCCCCSc1nc(NCCCCCCCCC)nc(NCC2CCN(C)CC2)n1 [Compound D10S16N9] | 49.2%
CCCCCCCCCCCCCCCCSc1nc(NCCCCCCCCCCC)nc(NCC2CCN(C)CC2)n1 [Compound D10S16N11] | 37.8%
CCCCCCCCCCCCCCCCSc1nc(NCCCCCCCCCCCC)nc(NCC2CCN(C)CC2)n1 [Compound D10S16N12] | 9.2%
CCCCCCCCCCCCCCCCSc1nc(NCCCCCCCCCCCCC)nc(NCC2CCN(C)CC2)n1 [Compound D10S16N13] | 7.1%
CCCCCCCCCCCCCCCCSc1nc(NCCCCCCCCCCCCCCC)nc(NCC2CCN(C)CC2)n1 [Compound D10S16N15] | 2.6%

SMILES | Absolute mRNA transfection efficiency in HEK293 cells
CCCCCCCCCCCCCCCCNc1nc(NCC2CCN(C)CC2)nc(SCCCCCCCCCCCCCCCC)n1 [Compound D10S16N16] | 2.8%
CCCCCCCCCCCCCCCCCCNc1nc(NCC2CCN(C)CC2)nc(SCCCCCCCCCCCCCCCC)n1 [Compound D10S16N18] | 3.0%
CCCCCCCCCCCCCCCCCCSc1nc(NCCCCCC)nc(NCC2CCN(C)CC2)n1 [Compound D10S18N6] | 58.8%
CCCCCCCCCCCCCCCCCCSc1nc(NCCCCCCC)nc(NCC2CCN(C)CC2)n1 [Compound D10S18N7] | 45.8%
CCCCCCCCCCCCCCCCCCSc1nc(NCCCCCCCC)nc(NCC2CCN(C)CC2)n1 [Compound D10S18N8] | 16.8%
CCCCCCCCCCCCCCCCCCSc1nc(NCCCCCCCCC)nc(NCC2CCN(C)CC2)n1 [Compound D10S18N9] | 8.9%
CCCCCCCCCCCCCCCCCCSc1nc(NCCCCCCCCCCC)nc(NCC2CCN(C)CC2)n1 [Compound D10S18N11] | 4.5%
CCCCCCCCCCCCCCCCCCSc1nc(NCCCCCCCCCCCC)nc(NCC2CCN(C)CC2)n1 [Compound D10S18N12] | 2.0%
CCCCCCCCCCCCCCCCCCSc1nc(NCCCCCCCCCCCCC)nc(NCC2CCN(C)CC2)n1 [Compound D10S18N13] | 2.9%
CCCCCCCCCCCCCCCCCCSc1nc(NCCCCCCCCCCCCCCC)nc(NCC2CCN(C)CC2)n1 [Compound D10S18N15] | 0.2%
CCCCCCCCCCCCCCCCCCSc1nc(NCCCCCCCCCCCCCCCC)nc(NCC2CCN(C)CC2)n1 [Compound D10S18N16] | 0.4%
CCCCCCCCCCCCCCCCCCNc1nc(NCC2CCN(C)CC2)nc(SCCCCCCCCCCCCCCCCCC)n1 [Compound D10S18N18] | 0.1%
CCCCCCCCCCCCN(CCCCCCCCCCCC)c1nc(NCCN(C)C)nc(SCCCCCC)n1 [D1S6^2N12] | 0.7%
CCCCCCCCCCCCN(CCCCCCCCCCCC)c1nc(NCCN(C)C)nc(SCCCCCCC)n1 [D1S7^2N12] | 0.7%
CCCCCCCCCCCCN(CCCCCCCCCCCC)c1nc(NCCN(C)C)nc(SCCCCCCCC)n1 [D1S8^2N12] | 0.4%
CCCCCCCCCCCCN(CCCCCCCCCCCC)c1nc(NCCN(C)C)nc(SCCCCCCCCC)n1 [D1S9^2N12] | 1.0%
CCCCCCCCCCCCN(CCCCCCCCCCCC)c1nc(NCCN(C)C)nc(SCCCCCCCCCC)n1 [D1S10^2N12] | 0.4%
CCCCCCCCCCCCN(CCCCCCCCCCCC)c1nc(NCCN(C)C)nc(SCCCCCCCCCCC)n1 [D1S11^2N12] | 0.0%
